Results on 14 compounds are retold here after PMC11191877, “Discovery of new Schiff bases of the disalicylic acid scaffold as DNA gyrase and topoisomerase IV inhibitors endowed with antibacterial properties” (Frontiers in Chemistry, 2024).

For one experiment, the system named is Candida albicans. Kind of experiment: Modified Kirby-Bauer disc diffusion (antifungal). In kind it is cell-based. The following applies: Candida albicans (fungi). The procedure:
(§1) The antimicrobial activity of compounds 5a-k was assessed using a modified Kirby-Bauer disc diffusion method ([Alkhaldi et al., 2019]; [Al-Wahaibi et al., 2021b]; [Manso et al., 2021]; [Ecevit et al., 2022]). […] Ciprofloxacin was used as a reference medication. […] Compounds 5f-k had promising antibacterial action against Gram-positive and Gram-negative bacteria, ranging from 75% to 115% of typical ciprofloxacin levels.
(§2) In addition, the synthesized compounds 5a-k were evaluated for their antifungal activity against A. flavus and C. albicans, with Fluconazole as a reference medication (Table 1). […]
(§3) incubated at 35-37 °C for 24-48 hours and yeast as Candida albicans (ATCC 7102) incubated at 30 °C for 24-48 hours and, then the diameters of the inhibition zones were measured in millimeters. Standard discs of ciprofloxacin (Antibacterial agent), Fluconazole (Antifungal agent) served as positive controls for antimicrobial activity but filter discs impregnated with 10 µl of solvent (distilled water, chloroform, DMSO) were used as a negative control. Blank paper disks (Schleicher & Schuell, Spain) with a diameter of 8.0 mm were impregnated 10µ of tested concentration of the stock solutions. When a filter paper disc impregnated with a tested chemical is placed on agar the chemical will diffuse from the disc into the agar. This diffusion will place the chemical in the agar only around the disc. The solubility of the chemical and its molecular size will determine the size of the area of chemical infiltration around the disc. If an organism is placed on the agar it will not grow in the area around the disc if it is susceptible to the chemical. This area of no growth around the disc is known as a “Zone of inhibition” or" Clear zone". For the disc diffusion, the zone diameters were measured with slipping calipers of the National Committee for Clinical Laboratory […]
(§4) Agar-based methods such as E-test and disk diffusion can be good alternatives because they are simpler and faster than broth-based methods. […]

For another experiment, the system named is Aspergillus flavus. As to the kind of experiment: Modified Kirby-Bauer disc diffusion (antifungal). In kind it is cell-based. The settings on record: Aspergillus flavus (fungi). On the procedure: as §1, §2
Standard discs of ciprofloxacin (Antibacterial agent), Fluconazole (Antifungal agent) served as positive controls for antimicrobial activity but filter discs impregnated with 10 µl of solvent (distilled water, chloroform, DMSO) were used as a negative control. Blank paper disks (Schleicher & Schuell, Spain) with a diameter of 8.0 mm were impregnated 10µ of tested concentration of the stock solutions. When a filter paper disc impregnated with a tested chemical is placed on agar the chemical will diffuse from the disc into the agar. This diffusion will place the chemical in the agar only around the disc. The solubility of the chemical and its molecular size will determine the size of the area of chemical infiltration around the disc. If an organism is placed on the agar it will not grow in the area around the disc if it is susceptible to the chemical. This area of no growth around the disc is known as a “Zone of inhibition” or" Clear zone". For the disc diffusion, the zone diameters were measured with slipping calipers of the National Committee for Clinical Laboratory […]
as §4

For experiment [1], the system named is Bacillus subtilis. As to the kind of experiment: Modified Kirby-Bauer disc diffusion. In kind it is cell-based. The settings on record: Bacillus subtilis (G+). On the procedure:
(§5) The antimicrobial activity of compounds 5a-k was assessed using a modified Kirby-Bauer disc diffusion method ([Alkhaldi et al., 2019]; [Al-Wahaibi et al., 2021b]; [Manso et al., 2021]; [Ecevit et al., 2022]). […] Ciprofloxacin was used as a reference medication. […] Compounds 5f-k had promising antibacterial action against Gram-positive and Gram-negative bacteria, ranging from 75% to 115% of typical ciprofloxacin levels. […]
as §3, §4

Experiment [2] relates to Pseudomonas aeruginosa. Kind of experiment: Modified Kirby-Bauer disc diffusion. The following applies: Pseudomonas aeruginosa (G−). Type of experiment: cell-based. The procedure:
as §5, §3, §4

The subject of experiment [3] is Escherichia Coli. As to the kind of experiment: Modified Kirby-Bauer disc diffusion. Type of experiment: cell-based. The following applies: Escherichia Coli (G−). The procedure:
as §5, §3, §4

Another experiment relates to Staph. aureus. Kind of experiment: Modified Kirby-Bauer disc diffusion. Type of experiment: cell-based, Staphylococcus aureus. The following applies: Staph. aureus (G+). On the procedure:
as §5, §3, §4

The test system of a further experiment is mycobacterium. Also noted: method as in Abdu-Allah et al., 2017. The settings on record: nutrition starvation paradigm, 10 μg/mL; ref Abdu-Allah et al., 2017; cited from earlier work.
The next experiment relates to M. tuberculosis H37Rv. Also noted: method as in Abdu-Allah et al., 2017. The following applies: ref Abdu-Allah et al., 2017; cited from earlier work.
Another experiment concerns P. fluorescence. Also noted: method as in Shi et al., 2007. The following applies: ref Shi et al., 2007; cited from earlier work.
For a further experiment, the system named is B. subtilis. Also noted: method as in Shi et al., 2007. The settings on record: ref Shi et al., 2007; cited from earlier work.
For the next experiment, the system named is E. Coli. Also noted: method as in Shi et al., 2007. The settings on record: ref Shi et al., 2007; cited from earlier work.
In experiment [4] the target is S. aureus topoisomerase IV. The settings on record: read-out: IC50 S. aureus topoisomerase IV; internal standard value stated in the supplementary method; cited from earlier work.
In experiment [5] the test system is E. coli b-Ketoacyl-acyl carrier protein synthase III (ecKAS III). Also noted: method as in Cheng et al., 2010. The following applies: ref Cheng et al., 2010; cited from earlier work.
In experiment [6] the test system is DNA methyltransferases (DNMTs). Also noted: method as in Leroy et al., 2019. The settings on record: ref Leroy et al., 2019; cited from earlier work.
Experiment [7] deals with Bacillus subtilis. As to the kind of experiment: MIC, twofold serial dilution, 96-well microtiter plate. In kind it is cell-based. The following applies: Bacillus subtilis (G+); read-out: Minimum inhibitory concentration (MIC). The procedure: (§6) The antibacterial activity of compounds 5f, 5h, 5i, and 5k were evaluated using a twofold serial dilution method ([Parasa et al., 2011]), with ciprofloxacin as the reference compound. The MIC values for certain compounds were obtained through dose-response experiments. The stated values are based on a minimum of two independent experiments, with three replicates per concentration in each experiment. The experimental details can be found in Appendix A (Supplementary Material). […]
(§7) 4.2.2. Minimum inhibitory concentration assay
(§8) In 96-well microtiter plates and […] of fresh bacterial culture of a single McFarland unit overnight, a double serial dilution of each compound […] in sterile standard saline were prepared to every single source well. Ciprofloxacin antibiotic (5 mg / mL - 1) and normal saline were included as standard reference in each assay. The plates were incubated at 37 0C overnight. As an indicator of bacterial growth, […] of p-iodonitrotetrazolium violet (INT) was added to each well and incubated at 37 0C for 30 […]
(§9) min. MIC values are recorded as the lowest concentration of the extract that completely inhibited bacterial growth that is clear well. The colorless tetrazolidium salt acts as an electron accepter and is reduced to a red colored formazan product by biological activity organisms. Where bacterial growth was inhibited, the solution in the well remained clear after incubation with INT. […]
(§10) SybrGOLD in T10 buffer (10 mM Tris HCl with pH 8.0 and 1 mM EDTA) was added. […]

The test system of experiment [8] is Pseudomonas aeruginosa. Described as above. Type of experiment: cell-based. The following applies: Pseudomonas aeruginosa (G−); read-out: Minimum inhibitory concentration (MIC). On the procedure:
as §6, §7, §8, §9, §10

The next experiment has as its system Staphylococcus aureus. The description is as above. The settings on record: Staphylococcus aureus (G+); read-out: Minimum inhibitory concentration (MIC). Type of experiment: cell-based. The procedure:
as §6, §7, §8, §9, §10

For experiment [9], the system named is Escherichia Coli. The experiment is described as above. Type of experiment: cell-based. The settings on record: Escherichia coli (G−); read-out: Minimum inhibitory concentration (MIC). The procedure: as §6, §7, §8, §9, §10

Converted amounts (≈) assume the structure as drawn.

Take `OC(Cn1cncn1)(Cn1cncn1)c1ccc(F)cc1F` [Fluconazole, reference compound]: the Inhibition zone diameter with Candida albicans and in the experiment with Aspergillus flavus was 40 mm/mg Sample in each case.

Regarding “N'-((E)-4-Bromobenzylidene)-4-(4-(2-((Z)-4-bromobenzylidene)hydrazine-1-carbonyl)-3-hydroxybenzyl)-2-hydroxybenzohydrazide [Compound 5d]”, the Inhibition zone diameter in the experiment on Bacillus subtilis [1] is listed as 28 mm/mg Sample; in the experiment on Pseudomonas aeruginosa [2], 26 mm/mg Sample; in the experiment with Escherichia Coli [3] it was 30 mm/mg Sample; with Candida albicans, 10 mm/mg Sample; in the experiment with Staph. aureus, 31 mm/mg Sample; with Aspergillus flavus it was 0.0 mm/mg Sample.

Regarding “N'-((E)-4-Nitrobenzylidene)-4-(4-(2-((Z)-4-nitrobenzylidene)hydrazine-1-carbonyl)-3-hydroxybenzyl)-2-hydroxybenzohydrazide [Compound 5c]”, the Inhibition zone diameter was 26 mm/mg Sample in the experiment on Bacillus subtilis [1]; 25 mm/mg Sample in the experiment on Pseudomonas aeruginosa [2]; 27 mm/mg Sample in the experiment on Escherichia Coli [3]; 11 mm/mg Sample in the experiment with Candida albicans; 27 mm/mg Sample in the experiment on Staph. aureus; 0.0 mm/mg Sample in the experiment with Aspergillus flavus.

Regarding “N'-((E)-4-Chlorobenzylidene)-4-(4-(2-((Z)-4-chlorobenzylidene)hydrazine-1-carbonyl)-3-hydroxybenzyl)-2-hydroxybenzohydrazide [Compound 5b]”, the Inhibition zone diameter is 26 mm/mg Sample in the experiment on Bacillus subtilis [1]; 26 mm/mg Sample in the experiment with Pseudomonas aeruginosa [2]; 26 mm/mg Sample with Escherichia Coli [3]; 7 mm/mg Sample in the experiment with Candida albicans; 27 mm/mg Sample with Staph. aureus; 0.0 mm/mg Sample with Aspergillus flavus.

With “N'-((E)-Benzylidene)-4-(4-(2-((Z)-benzylidene)hydrazine-1-carbonyl)-3-hydroxy benzyl)-2-hydroxybenzohydrazide [Compound 5a]”, the Inhibition zone diameter with Bacillus subtilis [1] stood at 21 mm/mg Sample; in the experiment on Pseudomonas aeruginosa [2], 21 mm/mg Sample; with Escherichia Coli [3], 24 mm/mg Sample; in the experiment on Candida albicans, 0.0 mm/mg Sample; with Staph. aureus, 25 mm/mg Sample; with Aspergillus flavus it was 0.0 mm/mg Sample.

Turning to `O=C(N/N=C1\C(=O)N(Cc2ccc(Cl)cc2)c2ccccc21)c1cc(-n2cc(-c3ccccc3)nn2)ccc1O` [III], in the experiment with mycobacterium, the “reduction of bacterial count” value is given as 2.4 logs. For the same compound, the MIC in the experiment on M. tuberculosis H37Rv is 0.39 µg/mL (≈ 0.71 µM).

For “N'-((E)-4-Methoxybenzylidene)-4-(4-(2-((Z)-4-methoxybenzylidene)hydrazine-1-carbonyl)-3-hydroxybenzyl)-2-hydroxybenzohydrazide [Compound 5j]”, the Inhibition zone diameter in the experiment with Bacillus subtilis [1] is recorded as 31 mm/mg Sample; in the experiment with Pseudomonas aeruginosa [2], 30 mm/mg Sample; with Escherichia Coli [3], 30 mm/mg Sample; in the experiment on Candida albicans it was 0.0 mm/mg Sample; with Staph. aureus it was 33 mm/mg Sample; with Aspergillus flavus, 0.0 mm/mg Sample.

For the compound `CC(C/N=C/c1cc(Cl)ccc1O)C/N=C/c1cc(Cl)ccc1O` [II], the MIC is 3.6 µg/mL (≈ 9.86 µM) with P. fluorescence, 1.8 µg/mL (≈ 4.93 µM) in the experiment on B. subtilis and 4.9 µg/mL (≈ 13.4 µM) with E. Coli.

Turning to `NC[C@H]1O[C@H](O[C@H]2[C@H](O)[C@@H](O[C@H]3O[C@H](CO)[C@@H](O)[C@H](N)[C@H]3O)[C@H](N)C[C@@H]2N)[C@H](O)[C@@H](O)[C@@H]1O` [Kanamycin], the MIC in the experiment on P. fluorescence was 3.9 µg/mL (≈ 8.05 µM); with B. subtilis, 0.39 µg/mL (≈ 0.805 µM); in the experiment on E. Coli, 3.9 µg/mL (≈ 8.05 µM).

As for “N'-((E)-2-Chlorobenzylidene)-4-(4-(2-((Z)-2-chlorobenzylidene)hydrazine-1-carbonyl)-3-hydroxybenzyl)-2-hydroxybenzohydrazide [Compound 5e]”, the Inhibition zone diameter in the experiment on Bacillus subtilis [1] was found to be 27 mm/mg Sample; with Pseudomonas aeruginosa [2], 28 mm/mg Sample; in the experiment on Escherichia Coli [3] it was 28 mm/mg Sample; in the experiment on Candida albicans it was 12 mm/mg Sample; in the experiment on Staph. aureus it was 30 mm/mg Sample; with Aspergillus flavus, 0.0 mm/mg Sample.

Take `CO[C@@H]1[C@@H](OC(N)=O)[C@@H](O)[C@H](Oc2ccc3c(O)c(NC(=O)c4ccc(O)c(CC=C(C)C)c4)c(=O)oc3c2C)OC1(C)C` [Novobiocin]: in experiment [4], the IC50 is 26.7 µM.

Regarding `CC(CNC(=O)c1ccccc1O)/N=C/c1cc(Cl)cc(Cl)c1O` (stereo not drawn) [IV], the “inhibitory activity against ecKAS III” value in [5] is given as “potent inhibitory activity”.

As to `O=C(O)c1cc(Cc2ccc(O)c(C(=O)O)c2)ccc1O` [NSC 14778, disalicylic acid methylene], the “inhibitory activity on DNMTs” value in experiment [6] is on record as “within the micromolar range”.

Consider `O=C(O)c1cn(C2CC2)c2cc(N3CCNCC3)c(F)cc2c1=O` [Ciprofloxacin, reference compound], for which the MIC in the experiment on Bacillus subtilis [7] was determined as 0.01 µg/mL (≈ 0.0302 µM); with Pseudomonas aeruginosa [8], 0.06 µg/mL (≈ 0.181 µM); with Staphylococcus aureus, 0.03 µg/mL (≈ 0.0905 µM); in the experiment with Escherichia Coli [9], 0.06 µg/mL (≈ 0.181 µM). Further, the Inhibition zone diameter in the experiment on Bacillus subtilis [1], in the experiment on Pseudomonas aeruginosa [2], with Escherichia Coli [3] and in the experiment on Staph. aureus was 40 mm/mg Sample throughout.
